In ChEMBL document CHEMBL1136534, “Dihydroquinolines with amine-containing side chains as potent n-NOS inhibitors” (Bioorg Med Chem Lett, 2003):

Experiments:
Nitric oxide synthase 1 = Nitric oxide synthase 1 (Homo sapiens, UniProt P29475); test: Inhibitory concentration against recombinant human (neuronal nitric oxide synthase) n-NOS
Nitric oxide synthase 3 = molecular target: T1, Nitric oxide synthase 3 (Homo sapiens, UniProt P29474); test: Inhibitory concentration against recombinant human Endothelial nitric oxide synthase
T1 sequence (P29474 whole entry): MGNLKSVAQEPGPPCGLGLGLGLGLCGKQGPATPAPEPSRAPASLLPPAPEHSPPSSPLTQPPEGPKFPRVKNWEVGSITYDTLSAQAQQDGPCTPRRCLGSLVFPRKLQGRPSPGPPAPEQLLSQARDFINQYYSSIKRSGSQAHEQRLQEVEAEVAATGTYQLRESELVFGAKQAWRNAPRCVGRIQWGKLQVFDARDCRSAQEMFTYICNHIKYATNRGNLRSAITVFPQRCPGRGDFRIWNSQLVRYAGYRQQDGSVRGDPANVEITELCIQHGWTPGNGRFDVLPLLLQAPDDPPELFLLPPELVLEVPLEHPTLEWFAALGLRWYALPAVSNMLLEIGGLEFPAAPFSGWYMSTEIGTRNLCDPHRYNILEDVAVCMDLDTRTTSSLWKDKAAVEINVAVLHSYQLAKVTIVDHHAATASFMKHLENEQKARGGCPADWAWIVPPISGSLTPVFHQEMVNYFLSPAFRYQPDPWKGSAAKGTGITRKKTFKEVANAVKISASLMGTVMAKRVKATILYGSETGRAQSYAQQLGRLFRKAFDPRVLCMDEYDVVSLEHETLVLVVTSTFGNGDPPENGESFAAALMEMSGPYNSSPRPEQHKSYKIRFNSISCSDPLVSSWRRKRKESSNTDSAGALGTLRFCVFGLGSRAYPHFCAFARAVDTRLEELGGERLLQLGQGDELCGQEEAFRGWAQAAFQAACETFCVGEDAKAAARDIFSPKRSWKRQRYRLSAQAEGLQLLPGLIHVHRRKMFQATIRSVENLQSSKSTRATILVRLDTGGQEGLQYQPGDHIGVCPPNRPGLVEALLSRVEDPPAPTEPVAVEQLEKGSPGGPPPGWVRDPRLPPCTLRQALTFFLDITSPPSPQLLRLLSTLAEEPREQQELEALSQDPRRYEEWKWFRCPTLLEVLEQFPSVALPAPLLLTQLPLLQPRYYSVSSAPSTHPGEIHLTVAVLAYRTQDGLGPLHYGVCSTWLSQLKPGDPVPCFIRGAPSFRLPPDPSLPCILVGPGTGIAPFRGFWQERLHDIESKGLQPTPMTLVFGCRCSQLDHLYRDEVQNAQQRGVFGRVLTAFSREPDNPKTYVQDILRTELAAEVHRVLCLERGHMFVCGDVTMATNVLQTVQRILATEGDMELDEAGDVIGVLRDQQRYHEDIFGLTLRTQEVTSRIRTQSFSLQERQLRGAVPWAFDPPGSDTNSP

[1] = molecular target: Nitric oxide synthase, inducible (Homo sapiens, UniProt P35228); test: Inhibitory concentration against human Inducible nitric oxide synthase
Nitric oxide synthase, inducible, sequence (P35228 whole entry): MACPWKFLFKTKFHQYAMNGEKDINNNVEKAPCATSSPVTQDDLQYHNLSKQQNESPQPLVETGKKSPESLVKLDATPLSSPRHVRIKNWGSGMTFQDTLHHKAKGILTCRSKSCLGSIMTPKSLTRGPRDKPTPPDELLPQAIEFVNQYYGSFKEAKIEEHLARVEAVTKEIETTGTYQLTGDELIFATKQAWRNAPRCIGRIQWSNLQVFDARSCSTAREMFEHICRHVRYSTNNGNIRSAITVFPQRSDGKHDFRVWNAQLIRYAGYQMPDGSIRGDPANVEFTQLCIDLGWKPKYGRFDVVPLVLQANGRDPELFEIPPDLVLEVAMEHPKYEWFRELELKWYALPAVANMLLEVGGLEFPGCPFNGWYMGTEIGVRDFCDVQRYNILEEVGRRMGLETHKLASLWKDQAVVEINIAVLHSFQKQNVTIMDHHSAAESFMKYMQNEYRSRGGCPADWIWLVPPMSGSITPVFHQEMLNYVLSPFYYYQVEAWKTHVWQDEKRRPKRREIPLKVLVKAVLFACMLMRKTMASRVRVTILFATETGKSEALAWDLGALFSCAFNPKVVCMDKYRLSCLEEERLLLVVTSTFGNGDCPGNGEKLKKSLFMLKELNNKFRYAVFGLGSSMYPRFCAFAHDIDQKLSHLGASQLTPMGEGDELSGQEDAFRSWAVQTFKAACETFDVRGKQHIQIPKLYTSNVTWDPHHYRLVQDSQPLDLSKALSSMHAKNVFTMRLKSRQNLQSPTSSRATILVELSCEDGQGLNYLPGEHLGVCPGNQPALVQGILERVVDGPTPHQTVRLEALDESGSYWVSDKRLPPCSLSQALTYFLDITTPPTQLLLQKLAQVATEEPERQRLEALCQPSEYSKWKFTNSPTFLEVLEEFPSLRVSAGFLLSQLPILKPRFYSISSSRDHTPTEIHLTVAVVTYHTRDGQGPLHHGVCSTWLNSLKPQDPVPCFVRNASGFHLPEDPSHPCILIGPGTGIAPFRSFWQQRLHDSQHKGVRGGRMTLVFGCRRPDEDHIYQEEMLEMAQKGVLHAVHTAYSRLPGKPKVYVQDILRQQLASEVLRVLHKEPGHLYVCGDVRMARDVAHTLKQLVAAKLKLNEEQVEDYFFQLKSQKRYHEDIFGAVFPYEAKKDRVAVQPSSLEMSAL

Nitric oxide synthase 1, sequence (P29475 whole entry): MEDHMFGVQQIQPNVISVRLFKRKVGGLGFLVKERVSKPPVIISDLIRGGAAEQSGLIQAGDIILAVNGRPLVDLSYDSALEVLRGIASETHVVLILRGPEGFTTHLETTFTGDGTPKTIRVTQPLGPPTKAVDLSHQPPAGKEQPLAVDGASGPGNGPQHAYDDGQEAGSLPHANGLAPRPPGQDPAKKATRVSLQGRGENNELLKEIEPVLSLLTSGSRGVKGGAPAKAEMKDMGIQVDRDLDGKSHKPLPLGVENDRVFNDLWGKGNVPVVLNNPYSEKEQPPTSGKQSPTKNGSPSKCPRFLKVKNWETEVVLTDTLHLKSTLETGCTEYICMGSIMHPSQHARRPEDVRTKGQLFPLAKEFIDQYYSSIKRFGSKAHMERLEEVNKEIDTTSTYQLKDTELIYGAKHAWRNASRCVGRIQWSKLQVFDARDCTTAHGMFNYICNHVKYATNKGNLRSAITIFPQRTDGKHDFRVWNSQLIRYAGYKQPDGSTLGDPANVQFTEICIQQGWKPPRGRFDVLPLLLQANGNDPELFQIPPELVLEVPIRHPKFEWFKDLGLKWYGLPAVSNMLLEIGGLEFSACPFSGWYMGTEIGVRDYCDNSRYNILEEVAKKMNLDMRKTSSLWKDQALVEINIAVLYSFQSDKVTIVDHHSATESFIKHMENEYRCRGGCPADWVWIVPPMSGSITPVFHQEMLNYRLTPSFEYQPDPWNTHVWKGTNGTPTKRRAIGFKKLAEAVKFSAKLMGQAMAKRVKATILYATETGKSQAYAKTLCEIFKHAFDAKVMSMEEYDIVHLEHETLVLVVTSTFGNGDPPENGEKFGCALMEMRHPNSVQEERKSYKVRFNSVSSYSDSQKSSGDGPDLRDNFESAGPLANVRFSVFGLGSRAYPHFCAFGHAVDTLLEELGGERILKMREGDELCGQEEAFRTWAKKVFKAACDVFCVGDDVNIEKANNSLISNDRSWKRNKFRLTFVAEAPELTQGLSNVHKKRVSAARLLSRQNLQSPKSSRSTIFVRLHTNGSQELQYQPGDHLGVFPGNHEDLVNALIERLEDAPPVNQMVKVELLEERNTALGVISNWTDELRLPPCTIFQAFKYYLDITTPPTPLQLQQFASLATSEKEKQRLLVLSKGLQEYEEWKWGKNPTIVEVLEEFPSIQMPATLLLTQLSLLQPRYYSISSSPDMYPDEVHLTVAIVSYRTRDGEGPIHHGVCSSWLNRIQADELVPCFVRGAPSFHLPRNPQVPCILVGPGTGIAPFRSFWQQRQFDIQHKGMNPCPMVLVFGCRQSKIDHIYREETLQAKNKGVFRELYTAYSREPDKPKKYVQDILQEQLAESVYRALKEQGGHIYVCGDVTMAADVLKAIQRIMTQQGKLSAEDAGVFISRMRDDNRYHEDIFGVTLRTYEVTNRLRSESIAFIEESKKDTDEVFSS

SMILES	IC50 (Nitric oxide synthase 1) [nM]	IC50 (Nitric oxide synthase 3) [nM]	IC50 [1] [nM]
CNCCOc1ccc2c(c1)N=C(N)[C@@H]1CCC[C@H]21	170	52000	3900
NC1=Nc2cc(CCCNCc3cccc(Cl)c3)ccc2[C@H]2CCC[C@@H]12	42	9400	580
NC1=Nc2cc(CCNCc3cccc(Cl)c3)c(Cl)cc2[C@H]2CCC[C@@H]12	170	8700	1600

Further lines, results first:

IC50 (Nitric oxide synthase 1) [nM]	IC50 (Nitric oxide synthase 3) [nM]	IC50 [1] [nM]	SMILES
35	3500	–	N=C(Nc1ccc(CCNCc2cccc(Cl)c2)cc1)c1cccs1
48	6700	530	NC1=Nc2cc(CCNCc3cccc(Cl)c3)ccc2[C@H]2CCC[C@@H]12
140	9600	950	NC1=Nc2cc(CNCc3cccc(Cl)c3)ccc2[C@H]2CCC[C@@H]12
